Data as given in the supplement of paper PMC10307832.

Assays:
Assay in all cases: relative viability (nuclei count vs DMSO), 5 days (fraction); higher = more cells survive
AT9283 + AZD7762 = compound: O=C(Nc1c[nH]nc1-c1nc2ccc(CN3CCOCC3)cc2[nH]1)NC1CC1 [AT9283] + NC(=O)Nc1cc(-c2cccc(F)c2)sc1C(=O)N[C@H]1CCCNC1 [AZD7762] (partner 0.2 µM)
Summary of the method: (§1)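 One day after seeding in 1536-well plates, lung cancer cell lines were dosed by pin tool. Dosing was either single-drug or a fixed anchor-drug dose plus five library-drug doses (not always all listed) in √10 steps. After 5 days, nuclei were stained in one fix-and-stain step and counted on 4× images, and relative viability is the nuclei count of treated wells over that of vehicle wells, given as the median of duplicate plates.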

AT9283 + Palbociclib = compound: O=C(Nc1c[nH]nc1-c1nc2ccc(CN3CCOCC3)cc2[nH]1)NC1CC1 [AT9283] + CC(=O)c1c(C)c2cnc(Nc3ccc(N4CCNCC4)cn3)nc2n(C2CCCC2)c1=O [Palbociclib] (partner 0.5 µM)
Summary of the method: as §1

AT9283 + Olaparib = compound: O=C(Nc1c[nH]nc1-c1nc2ccc(CN3CCOCC3)cc2[nH]1)NC1CC1 [AT9283] + O=C(c1cc(Cc2n[nH]c(=O)c3ccccc23)ccc1F)N1CCN(C(=O)C2CC2)CC1 [Olaparib] (partner 8 µM)
Summary of the method: as §1

Erlotinib + Navitoclax = compound: C#Cc1cccc(Nc2ncnc3cc(OCCOC)c(OCCOC)cc23)c1 [Erlotinib] + CC1(C)CCC(c2ccc(Cl)cc2)=C(CN2CCN(c3ccc(C(=O)NS(=O)(=O)c4ccc(N[C@H](CCN5CCOCC5)CSc5ccccc5)c(S(=O)(=O)C(F)(F)F)c4)cc3)CC2)C1 [Navitoclax] (partner 0.5 µM)
Summary of the method: as §1

Erlotinib + Vorinostat = compound: C#Cc1cccc(Nc2ncnc3cc(OCCOC)c(OCCOC)cc23)c1 [Erlotinib] + O=C(CCCCCCC(=O)Nc1ccccc1)NO [Vorinostat] (partner 1 µM)
Summary of the method: as §1

| Cell Line | relative viability (AT9283 + AZD7762; first compound 0.003 µM) | relative viability (AT9283 + AZD7762; first compound 0.03 µM) | relative viability (AT9283 + AZD7762; first compound 0.09487 µM) | relative viability (AT9283 + AZD7762; first compound 0.3 µM) | relative viability (AT9283 + Palbociclib; first compound 0.003 µM) | relative viability (AT9283 + Palbociclib; first compound 0.03 µM) | relative viability (AT9283 + Palbociclib; first compound 0.09487 µM) | relative viability (AT9283 + Palbociclib; first compound 0.3 µM) | relative viability (AT9283 + Olaparib; first compound 0.003 µM) | relative viability (AT9283 + Olaparib; first compound 0.03 µM) | relative viability (AT9283 + Olaparib; first compound 0.09487 µM) | relative viability (AT9283 + Olaparib; first compound 0.3 µM) | relative viability (Erlotinib + Navitoclax; first compound 0.02 µM) | relative viability (Erlotinib + Navitoclax; first compound 0.2 µM) | relative viability (Erlotinib + Navitoclax; first compound 0.6325 µM) | relative viability (Erlotinib + Vorinostat; first compound 0.02 µM) | relative viability (Erlotinib + Vorinostat; first compound 0.2 µM) | relative viability (Erlotinib + Vorinostat; first compound 0.6325 µM) | relative viability (Erlotinib + Vorinostat; first compound 2 µM) | relative viability (Erlotinib + Navitoclax; first compound 2 µM) |
| --- | --- | --- | --- | --- | --- | --- | --- | --- | --- | --- | --- | --- | --- | --- | --- | --- | --- | --- | --- | --- |
| NCI-H460 | 0.543 | 0.687 | 0.131 | 0.11 | 0.146 | 0.191 | 0.0941 | 0.0475 | 0.479 | 0.307 | 0.127 | 0.113 | 1.09 | 0.867 | 1.44 | 0.832 | 0.734 | 0.969 | 0.601 | – |
| HCC-44 | 1.04 | 1.05 | 1.02 | 0.971 | 0.992 | 1 | 0.557 | 0.698 | 1.01 | 0.963 | 0.724 | 0.817 | 0.992 | 0.866 | 1.05 | 1.21 | 1.13 | 1.13 | 1.16 | 0.868 |
| NCI-H2087 | 1.35 | 0.686 | 0.348 | 0.244 | 0.218 | 0.234 | 0.117 | 0.121 | 0.71 | 0.416 | 0.194 | 0.154 | 1.14 | 0.913 | 0.899 | 0.778 | 0.788 | 0.765 | 0.434 | 0.904 |
| UMC-11 | – | – | – | – | 0.327 | 0.235 | 0.243 | 0.186 | 0.712 | 0.218 | 0.213 | 0.23 | 0.337 | 0.281 | 0.336 | 0.388 | 0.403 | 0.392 | 0.3 | 0.3 |
| NCI-H1355 | 0.9 | 0.568 | 0.602 | 0.23 | 0.395 | 0.404 | 0.376 | 0.152 | 0.803 | 0.708 | 0.329 | 0.246 | 1.02 | 0.9 | 0.812 | 0.668 | 0.633 | 0.602 | 0.521 | 0.675 |
| H3255 | 0.832 | 0.746 | 0.548 | 0.211 | 0.337 | 0.316 | 0.323 | 0.284 | 0.553 | 0.52 | 0.545 | 0.231 | 0.449 | 0.147 | 0.0899 | 0.705 | 0.817 | 0.628 | 0.206 | 0.0743 |
| NCI-H2085 | 0.968 | 0.969 | 0.749 | 0.353 | 0.498 | 0.473 | 0.413 | 0.319 | 0.834 | 0.772 | 0.629 | 0.292 | 1.23 | 0.988 | 0.893 | 0.78 | 0.649 | 0.724 | 0.535 | 0.808 |
| IA-LM | – | – | – | – | – | – | – | – | 0.998 | 0.524 | 0.243 | 0.145 | 0.847 | – | 1.01 | 0.905 | 0.72 | – | 0.744 | 0.802 |
| LCLC-103H | 0.749 | 0.661 | 0.554 | 0.328 | 0.362 | 0.494 | 0.423 | 0.371 | 0.77 | 0.784 | 0.467 | 0.37 | – | – | – | 0.837 | 0.732 | 0.796 | 0.685 | – |
| NCI-H2405 | 0.771 | 0.566 | 0.208 | 0.163 | 0.519 | 0.407 | 0.284 | 0.196 | 0.941 | 0.615 | 0.333 | 0.217 | 0.915 | 0.902 | 1.01 | 1.27 | 1.1 | 1.1 | 0.917 | 0.78 |
| NCI-H1666 | 0.817 | 0.685 | 0.733 | 0.491 | 0.619 | 0.691 | 0.524 | 0.534 | 0.739 | 0.724 | 0.608 | 0.533 | 0.999 | 0.817 | 0.407 | – | 0.963 | 0.775 | 0.78 | 0.347 |
| COR-L 105 | – | – | – | – | 0.392 | 0.327 | 0.328 | 0.286 | 0.625 | 0.408 | 0.37 | 0.325 | 0.809 | 0.531 | 0.364 | 0.776 | 0.564 | 0.425 | 0.377 | 0.283 |
| ABC-1 | 0.83 | 0.365 | 1.18 | 0.229 | 0.664 | 0.381 | 0.295 | 0.325 | 0.853 | 0.324 | 0.551 | 0.417 | – | – | – | – | 1.13 | 1.34 | 0.985 | – |
| EPLC-272H | 0.139 | 0.23 | 0.104 | 0.144 | 0.306 | 0.355 | 0.276 | 0.241 | 0.698 | 0.18 | 0.107 | 0.119 | 1.04 | 1.05 | 1.1 | 0.459 | 0.411 | 0.396 | 0.292 | 0.589 |
| NCI-H1792 | 0.601 | 0.647 | 0.432 | 0.262 | 0.607 | 0.661 | 0.623 | 0.399 | 0.468 | 0.491 | 0.358 | 0.252 | 0.451 | 0.545 | 0.84 | – | – | – | – | 0.579 |
| NCI-H2170 | 0.794 | 0.485 | 0.162 | 0.153 | 0.446 | 0.37 | 0.198 | 0.148 | 0.613 | 0.385 | 0.14 | 0.146 | 0.513 | 0.377 | 0.451 | 0.787 | 0.855 | 0.832 | 0.501 | 0.216 |
| NCI-H2347 | 0.781 | 0.676 | 0.324 | 0.341 | 0.444 | 0.515 | 0.475 | 0.346 | 0.595 | 0.615 | 0.477 | 0.413 | 1.07 | 0.833 | 0.837 | 0.628 | 0.717 | 0.625 | 0.552 | 0.796 |
